Data published in ChEMBL document CHEMBL2029289, “Structure-activity relationship study of a CXC chemokine receptor type 4 antagonist, FC131, using a series of alkene dipeptide isosteres” (J Med Chem, 2012).

Target: C-X-C chemokine receptor type 4 (Homo sapiens, UniProt P61073)
Assay: Displacement of [125I]SDF-1alpha from CXCR4 expressed in HEK293 cell membrane after 1 hr
Format: cell membranes

C-X-C chemokine receptor type 4, sequence (P61073 whole entry): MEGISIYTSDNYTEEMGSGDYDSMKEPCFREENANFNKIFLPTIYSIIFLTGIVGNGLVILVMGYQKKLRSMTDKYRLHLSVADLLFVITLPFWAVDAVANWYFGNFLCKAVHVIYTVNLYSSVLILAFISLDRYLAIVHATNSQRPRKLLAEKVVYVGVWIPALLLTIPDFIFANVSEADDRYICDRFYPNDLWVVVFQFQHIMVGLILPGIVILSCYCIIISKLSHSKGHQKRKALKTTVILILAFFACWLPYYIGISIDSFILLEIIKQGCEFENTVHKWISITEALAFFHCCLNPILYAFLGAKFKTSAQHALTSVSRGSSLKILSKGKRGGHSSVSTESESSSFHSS

Row | Compound | IC50 [µM]
1 | CN1C(=O)[C@@H](Cc2ccc(O)cc2)NC(=O)CNC(=O)[C@H](Cc2ccc3ccccc3c2)NC(=O)[C@H](CCCN=C(N)N)NC(=O)[C@H]1CCCN=C(N)N | 0.063
2 | NC(N)=NCCC[C@H]1/C=C/[C@@H](Cc2ccc(O)cc2)NC(=O)CNC(=O)[C@H](Cc2ccc3ccccc3c2)NC(=O)[C@H](CCCN=C(N)N)NC1=O | 0.33
3 | C/C1=C\[C@H](CCCNC(=N)N)C(=O)N[C@@H](CCCNC(=N)N)C(=O)N[C@@H](Cc2ccc3ccccc3c2)C(=O)NCC(=O)N[C@@H]1Cc1ccc(O)cc1 | 0.5
4 | C/C1=C(/C)[C@@H](Cc2ccc(O)cc2)NC(=O)CNC(=O)[C@H](Cc2ccc3ccccc3c2)NC(=O)[C@H](CCCNC(=N)N)NC(=O)[C@H]1CCCNC(=N)N | 2.5
5 | C/C1=C(/C)[C@@H](CCCNC(=N)N)C(=O)N[C@@H](CCCNC(=N)N)C(=O)N[C@@H](Cc2ccc3ccccc3c2)C(=O)NCC(=O)N[C@@H]1Cc1ccc(O)cc1 | 0.1
6 | NC(N)=NCCC[C@H]1CC[C@H](Cc2ccc(O)cc2)NC(=O)CNC(=O)[C@H](Cc2ccc3ccccc3c2)NC(=O)[C@H](CCCN=C(N)N)NC1=O | > 10
7 | CN1C(=O)[C@@H](Cc2ccc(O)cc2)NC(=O)CNC(=O)[C@H](Cc2ccc3ccccc3c2)NC(=O)[C@H](CCCNC(=N)N)NC(=O)[C@@H]1CCCNC(=N)N | 0.29
